Several values for one entry are separate records, joined by “and”; a condition that tells them apart may be missing. Equal entries are not always repeated.

Series [1] can be described thus: Photophysical parameters of fluorophores in glycerol. The note with it: for B (brightness): calculated using B = Φϵ; for fluorescence in solvents with increasing concentrations of glycerol: glycerol:H2O mixtures; for Φ (quantum yield) / λem / λex / decrease in brightness relative to 3 / diminished quantum yield relative to 3: in glycerol; for λabs: maximum absorbance measured in glycerol; for ϵ (extinction coefficient): measured in glycerol. Type of series: physicochemical. The protocol:
FP analogues (20 μM) were prepared in glycerol:H2O mixture with increasing glycerol concentrations. In addition, fluorescence intensity in 1,4-dioxane was measured to evaluate their response to polarity. Fluorescence measurement was carried out using a Tecan infinite M1000Pro fluorescence microplate reader at excitation and emission wavelengths as indicated. All readings were normalized against the fluorescence intensity in 100% glycerol as 1. Error bars: standard error (n=3).
FP analogues (20 μM) were prepared in glycerol. Spectra were collected with emission wavelength of 420 nm for 1, 525 nm for 2, 620 nm for 3, 3a and 3b. All measurements were carried out using a Tecan infinite M1000Pro fluorescence microplate reader.
FP analogues (20 μM) were prepared in glycerol. Spectra were collected with excitation wavelength of 370 nm for 1, 455 nm for 2, 530 nm for 3 and 3b, 485 nm for 3a. All measurements were carried out using a Tecan infinite M1000Pro fluorescence microplate reader.
FP analogues (10 μM) were prepared in glycerol. Spectra were collected with 10 mm quartz cuvette. All measurements were carried out using Agilent 300 UV-Vis spectrophotometer.
However, the quantum yield (QY, Φ=0.001 for 1 and Φ=0.027 for 2 in glycerol, Table 2) was much lower than that of a GFP (Φ=0.79).

In another series the target is SOD1-A4V-Halo (Homo sapiens, UniProt P00441, A5V). Nature of the series: In vitro heat-induced aggregation of SOD1-A4V-Halo conjugates. The series is classed as biochemical. The text has this:
(B-C) Excitation and emission spectra of 4 (with misfolded oligomers of SOD1-A4V-Halo) and 5 (with insoluble aggregates of SOD1-A4V-Halo).
The inventors installed Halo-tag reactive warhead to 2, resulting in 5.

The nature of series [2]: Photostability of 3, absorbance under laser irradiation. Type of series: physicochemical. The note with it: 5 mW laser beam of 543 nm; glycerol and protein aggregates. An excerpt:
The inventors also determined photostability of 3 by measuring its absorbance spectra in glycerol and protein aggregates. […] These photochemical properties make 3 suited for fluorescence microscopy.

A short description of series [3]: Fluorescence of crystals of 3. The series is classed as physicochemical. The note with it: crystal. The text has this: (a) The crystal of 3 is fluorescent. The crystals were looped out and transferred to a 35 mm glass bottom dish. Images were taken using an inverted Biorad ZOE fluorescent cell imager. […] Reason of the dark image in the bright field is because light of an inverted microscope could not pass through the thick crystal. (b) Crystal structure and packing diagram of 3, with thermal ellipsoids drawn at 50% probability level.
The fluorescence may arise from the tight crystal packing that inhibits TICT of 3 (FIG. 10b).

The next series addresses T1, α-synuclein (Homo sapiens, UniProt P37840).
T1 construct: made in house; host or cells: E. coli (pET29b vector)
Nature of the series: α-synuclein aggregation assay, fluorogenic detection. Type of series: biochemical. As to conditions: for stoichiometry of fluorescence intensity with α-syn concentration: 70 vs 140 μM α-syn. On the procedure:
Aggregation of α-synuclein was carried out using method described in the Supporting Information. Subsequently, half of reaction mixture was loaded on a 96-well plate to measure fluorescence intensity of 3 (a) or ThT (b) for the reaction mixture (T). The other half was centrifuged at 21,000 g for 30 minutes at 4° C. The supernatant fraction (S) and pellet fraction (P, after resuspension with a volume that was equal to that of the S fraction) were loaded on a 96-well plate to measure fluorescence intensity. 10 μM 3 or ThT was also incubated in buffer as a control. Parameters for fluorescence measurement: 3 (Ex=530 nm/Em=600 nm) and ThT (Ex=440 nm/Em=480 nm). Error bars: standard error (n=3).
(§1) HEK293T cultures were seeded at 25% confluency 24 h prior to transfection in 12-well plate for time dependent fluorescence plate reader analysis or 35 mm glass bottom culture dishes (Poly-d-lysine coated, MatTek Corporation). Cells were grown in DMEM medium supplemented with 10% FBS and penicillin-streptomycin antibiotics until they reached 50-60% confluency. Transfection was performed using X-tremeGene™ 9 DNA transfection reagent (Roche). After 24 h of protein expression and co-translational labeling, medium was replaced with fresh DMEM to diffuse out unbound ligands. After 30 min, media was replaced by fresh DMEM medium containing DMSO vehicle or NaAsO2 (50 μM). Cells were incubated for 18 h, 37° C. in a CO2 incubator. Nuclear stain Hoechst 33342 ([…]) was added to the medium 30 min prior to confocal imaging. Aggregation Assays. α-synuclein: Aggregation solution contained 70 or 140 μM α-synuclein in 20 mM HEPES (pH 7.5) and 100 mM NaCl. 10 μM of 3 or ThT was added to the solution at the beginning of reaction. Previous studies have shown that the kinetics of α-synuclein aggregation is unaffected by the addition of ThT. A volume of 150 μL of the mixture was pipetted into a well of clear-bottom 96-well plate, which was subsequently sealed with Mylar plate sealers. The plate was loaded on a Heidolph vibrating platform shaker and shake at 1,350 rpm at 37° C. At indicated time points, fluorescence reading was obtained using a Tecan M1000Pro fluorescence plate reader. Fluorescence intensity was recorded at Ex=530 nm/Em=600 nm for 3 and Ex=450 nm/Em=480 nm for ThT. Each sample was run in triplicate or quadruplicate. SOD1(V31A): Aggregation was carried out with DPBS buffer containing indicated concentrations of EDTA that is used to chelate the structural metal of SOD1. Aggregation solution contained 42 μM SOD1(V31A) or SOD1(V31A)-Halo and […] of 3 was added to the solution at the beginning of reaction. Reaction was carried out quiescently at indicated temperatures. Fluorescence of 3 was measured at Ex=530 nm/Em=600 nm.

The target of a further series is T2, SOD1(V31A) (Homo sapiens, UniProt P00441, V32A).
T2 construct: linker (TEV site)-Halo-His6 (C, cleaved yes); made in house; host or cells: E. coli BL21 DE3* (pET29b; pBAD σ32-I54N co-expressed)
Nature of the series: Heat-induced SOD1(V31A) aggregation assay, fluorogenic detection. Type of series: biochemical. On the procedure: (a) SOD1(V31A) aggregation (42 μM) was induced at 59° C. for 30 min in buffer (50 mM Tris-HCl, pH 7.5, 100 mM NaCl, 83 mM EDTA), in the presence of 3 (21 μM). Reaction mixture was illuminated by UV trans-illuminator before and after centrifugation at 21,000 g for 10 min at 4° C. (b) Fluorescence intensity of SOD1(V31A) aggregates (42 μM) in the presence of varying concentrations of 3. 100 μM of 3 in buffer was used as a control. Parameters for fluorescence measurement: 3 (Ex=530 nm/Em=600 nm). Error bars: standard error (n=3).
as §1

The subject of a further series is HEK293T cells. Briefly: Stress-induced proteome aggregation in HEK293T cells with MG132 (AggGlow). Type of series: cell-based, human. As to conditions: 5 μM MG132, 2.5 μM 3. An excerpt: (§2) Untreated cells remain dark as shown in right panel.
(§3) 3 is used to monitor stress-induced proteome aggregation in HEK293T (human embryonic kidney) cells with a proteasome inhibitor MG132. […] The diffusive fluorescence structure indicates misfolded oligomers and the granular fluorescence structure indicates insoluble aggregates. Similar to this application, 3 was used to monitor stress-induced proteome aggregation in HeLa cells with a heat-shock protein 90 (Hsp90) inhibitor 17-AAG.

Another series concerns HeLa cells. Nature of the series: Stress-induced proteome aggregation in HeLa cells with 17-AAG (AggGlow). Type of series: cell-based. As to conditions: 1 μM 17-AAG, 2.5 μM 3.
Excerpt: as §2, §3

T2 sequence (P00441 whole entry V32A): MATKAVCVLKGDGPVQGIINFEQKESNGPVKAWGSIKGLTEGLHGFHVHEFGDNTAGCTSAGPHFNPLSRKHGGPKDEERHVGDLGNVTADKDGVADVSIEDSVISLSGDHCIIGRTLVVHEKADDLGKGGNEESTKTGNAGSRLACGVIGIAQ
SOD1-A4V-Halo, sequence (P00441 with tags, fused parts or gaps A5V): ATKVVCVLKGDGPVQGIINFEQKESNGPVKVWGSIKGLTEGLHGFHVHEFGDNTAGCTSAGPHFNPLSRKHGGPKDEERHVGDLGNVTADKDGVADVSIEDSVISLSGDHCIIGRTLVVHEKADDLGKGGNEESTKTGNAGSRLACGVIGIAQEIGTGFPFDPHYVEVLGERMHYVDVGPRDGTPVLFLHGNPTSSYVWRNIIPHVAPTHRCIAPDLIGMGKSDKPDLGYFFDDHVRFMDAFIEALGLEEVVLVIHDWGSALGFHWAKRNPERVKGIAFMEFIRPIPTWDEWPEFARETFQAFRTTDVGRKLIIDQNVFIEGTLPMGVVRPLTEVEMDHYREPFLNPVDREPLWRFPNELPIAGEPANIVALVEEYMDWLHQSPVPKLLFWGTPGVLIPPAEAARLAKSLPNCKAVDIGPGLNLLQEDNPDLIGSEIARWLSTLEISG

As for `CC1=N/C(=C\c2ccc(O)cc2)C(=O)N1CC(=O)OC(C)(C)C` [Compound 1, (Z)-tert-butyl 2-(4-(4-(hydroxy)benzylidene)-2-methyl-5-oxo-4,5-dihydro-1H-imidazol-1-yl)acetate], in series [1], the “B (brightness)” value is 20.6 M⁻¹ cm⁻¹, the “fluorescence in solvents with increasing concentrations of glycerol” value was “elevated fluorescence”, the “Φ (quantum yield)” value is given as 0.001 and the λem was found to be 429 nm. In series [1], the λex came to 370 nm, the λabs is recorded as 376 nm and the “ϵ (extinction coefficient)” value is reported as 20,592 M^−1cm^−1.

For the molecule `CC1=N/C(=C\c2ccc(N(C)C)cc2)C(=O)N1CC(=O)OC(C)(C)C` [Compound 2, (Z)-tert-butyl 2-(4-(4-(dimethylamino)benzylidene)-2-methyl-5-oxo-4,5-dihydro-1H-imidazol-1-yl)acetate], in series [1], the “B (brightness)” value was 640 M⁻¹ cm⁻¹, the “fluorescence in solvents with increasing concentrations of glycerol” value was “elevated fluorescence”, the “Φ (quantum yield)” value is 0.027 and the λem worked out at 521 nm. In addition, in series [1], the λex came out at 450 nm, the λabs was determined as 452 nm and the “ϵ (extinction coefficient)” value is given as 23,718 M^−1cm^−1. On SOD1-A4V-Halo, the “which POI conformations activate fluorescence” value is “only activates fluorescence when POI forms insoluble aggregates”.

For `CN(C)c1ccc(/C=C2N=C(/C=C/c3ccc(N(C)C)cc3)N(CC(=O)OC(C)(C)C)C\2=O)cc1` [Compound 3, tert-butyl 2-((Z)-4-(4-(dimethylamino)benzylidene)-2-((E)-4-(dimethylamino)styryl)-5-oxo-4,5-dihydro-1H-imidazol-1-yl)acetate], in series [1], the “B (brightness)” value is 8,786 M^−1cm^−1; the “Φ (quantum yield)” value is 0.22 and 0.221; the λem was 629 nm; the λex is 530 nm. For the same molecule, in series [1], the λabs is on record as 530 nm and the “ϵ (extinction coefficient)” value is reported as 39,049 M^−1cm^−1. In addition, in series [2], the “drop of absorbance at 530 nm on irradiation” value is listed as 10%. In series [3], the fluorescence of crystals result is “exhibited fluorescence”. Also, at α-synuclein, the “detection of soluble oligomers of α-syn” value is on record as “detects soluble oligomers via fluorescence increase” and the “stoichiometry of fluorescence intensity with α-syn concentration” value is given as “stoichiometric”. Moreover, at α-synuclein (70 μM α-syn), the “fluorescence intensity with mature α-syn fibers” value was determined as 0.52. Moreover, the “fluorescence intensity with mature α-syn fibers” value on α-synuclein (140 μM α-syn) is 1.0. The “time at which second phase of fluorescence increase was observed” value at α-synuclein (fiber growth) is on record as 20 h. Moreover, the “time at which second phase leveled off” value on α-synuclein (fiber maturation) was 36 h. At α-synuclein (first phase), the “time at which fluorescence reached a plateau” value was determined as 8 h. Further, at α-synuclein (first phase, soluble oligomers), the “time at which fluorescence started to increase” value was found to be 4 h. In addition, the “kinetics of fluorescence increase versus protein misfolding (tryptophan fluorescence)” value at SOD1(V31A) was “identical to that of protein misfolding”. The “kinetics of fluorescence increase versus turbidity” value on SOD1(V31A) (54.5° C.) is on record as “faster than that of turbidity”. Also, the “fraction in which fluorescence signal is found” value on SOD1(V31A) (after centrifugation) is given as “primarily found in the fraction of insoluble protein aggregates”. In addition, on SOD1(V31A) (incubated at 59° C.), the “quantum yield after aggregation of SOD1-V31A” value worked out at 0.22. The “quantum yield before aggregation of SOD1-V31A” value on SOD1(V31A) (start value) is given as 0.02. Also, the “fluorescence in stressed cells” value in the series with HEK293T cells was “obvious fluorescence pattern was developed in the cytosol”. The “fluorescence in stressed cells” value in the series on HeLa cells is listed as “obvious fluorescence pattern was developed in the cytosol”.

`CN(C)c1ccc(/C=C/C2=NC(=C\c3ccccc3)/C(=O)N2CC(=O)OC(C)(C)C)cc1` [Compound 3a, tert-butyl 2-((Z)-4-benzylidene-2-((E)-4-(dimethylamino)styryl)-5-oxo-4,5-dihydro-1H-imidazol-1-yl)acetate]: in series [1], the “B (brightness)” value is given as 1,386 M^−1cm^−1, the “decrease in brightness relative to 3” value was about 5 fold, the “diminished quantum yield relative to 3” value is on record as about 50% and the “Φ (quantum yield)” value turned out to be 0.1. In addition, in series [1], the λem amounted to 621 nm, the λex is 485 nm, the λabs turned out to be 500 nm and the “ϵ (extinction coefficient)” value was 13,863 M^−1cm^−1.

`CN(C)c1ccc(/C=C2N=C(/C=C/c3ccccc3)N(CC(=O)OC(C)(C)C)C\2=O)cc1` [Compound 3b, tert-butyl 2-((Z)-4-(4-(dimethylamino)benzylidene)-5-oxo-2-((E)-styryl)-4,5-dihydro-1H-imidazol-1-yl)acetate]: in series [1], the “B (brightness)” value is given as 2,089 M^−1cm^−1, the “decrease in brightness relative to 3” value is about 5 fold, the “diminished quantum yield relative to 3” value was “does not affect quantum yield” and the “Φ (quantum yield)” value is 0.232. In series [1], the λem amounted to 630 nm, the λex worked out at 530 nm, the λabs is 533 nm and the “ϵ (extinction coefficient)” value is recorded as 9,004 M^−1cm^−1.

Take `Cc1ccc2c(c1)sc(-c1ccc(N(C)C)cc1)[n+]2C.[Cl-]` [Thioflavin T, thioflavin T, reference compound]: at α-synuclein, the “detection of soluble oligomers of α-syn” value is listed as “fails to detect soluble oligomers” and the “stoichiometry of fluorescence intensity with α-syn concentration” value was “such stoichiometry was absent”.

Source of the values: patent publication US20210094922A1, “Dyes for Analysis of Soluble Protein Aggregates or Misfolded Protein Oligomers” (The Penn State Research Foundation, priority 2018, published 2021).
